Where two headings read alike, the source gives them in different places.
Assays:
SETD2(1434-1711) = molecular target: T1, SETD2(1434-1711) (Homo sapiens, UniProt Q9BYW2); test: SETD2 (1434-1711) assay; type: biochemical; conditions: read-out: SETD2 (1434-1711)
T1 construct: SETD2 (1434-1711) Assay; catalogue N/A
T1 sequence (Q9BYW2 1434-1711): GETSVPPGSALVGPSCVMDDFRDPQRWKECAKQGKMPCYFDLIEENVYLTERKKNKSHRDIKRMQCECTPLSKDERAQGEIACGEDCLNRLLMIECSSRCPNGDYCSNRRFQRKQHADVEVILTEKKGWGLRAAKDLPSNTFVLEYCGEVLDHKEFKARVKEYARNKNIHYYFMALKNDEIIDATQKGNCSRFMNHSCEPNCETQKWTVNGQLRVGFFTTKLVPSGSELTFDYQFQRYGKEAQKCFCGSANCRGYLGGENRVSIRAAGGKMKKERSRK

H3K36me3 in A549 cells = test: In-Cell Western (ICW) assay of SETD2 inhibitors (A549 assay); type: cell-based, human; conditions: A549 cells, read-out: SETD2 A549
In short: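 H3K36me3 In-Cell Western: cells exposed to compound for 3 days at 4,000 cells/well, 37° C. DRAQ5 (1:1000) marked cell number, with 700/800-channel Licor read-out.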

Row | IC50 (SETD2(1434-1711)) [nM] | IC50 (H3K36me3 in A549 cells) [nM] | IC50 (H3K36me3 in A549 cells; Homo sapiens) [nM] | SMILES
1 | 50 | 600 |  | COCC1(N(C)C)CCN(c2cccc(NC(=O)c3cc4c(F)ccc(C)c4[nH]3)c2)CC1 [compound 253]
2 | 40 |  | 200 | Cc1ccc(F)c2cc(C(=O)N[C@@H]3CCC[C@H](N4CCn5c(cnc5C(F)(F)F)C4)C3)[nH]c12 [compound 993]
3 | 10 | 40 |  | CCC(=O)N1CCN([C@H]2CCC[C@@H](NC(=O)c3cc4c(F)ccc(C)c4[nH]3)C2)CC1 [compound 839]
4 | 80 |  | 700 | Cc1ccc(F)c2cc(C(=O)Nc3cccc(-c4ncco4)c3)[nH]c12 [compound 261]
5 | 40 | 200 |  | Cc1ccc(F)c2cc(C(=O)NC3CCCC(N4CCC(N(C)C(=O)C(C)(C)O)C4)C3)[nH]c12 (stereo not shown) [compound 1146]
6 | 70 | 500 |  | Cc1ccc(F)c2cc(C(=O)Nc3cccc(N4CC5CC(C4)O5)c3)[nH]c12 [compound 218]
7 | 14000 |  | > 25000 | Cc1ccc(F)c2cc(C(=O)Nc3cnn(C4CCN(C)CC4)c3)[nH]c12 [compound 569]
8 | 21800 |  | > 25000 | Cc1cc(C(=O)N2CCNCC2)ccc1C(NC(=O)c1cc2cccc(C)c2[nH]1)C1CC1 (stereo not shown) [compound 577]
9 | 36400 |  | > 25000 | CCOC(=O)CC(NC(=O)c1cc2cccc(C)c2[nH]1)c1ccccc1 (stereo not shown) [compound 586]
10 | > 200000 | > 25000 |  | Cc1cccc2cc(C(=O)NCCc3cc(Cl)ccc3N3CCOCC3)[nH]c12 [compound 622]
11 | 10 | 100 |  | Cc1ccc(F)c2cc(C(=O)Nc3cccc(N4CCC(N(C)C)C4)c3)[nH]c12 (stereo not shown) [compound 59]
12 | 70 |  | 1600 | Cc1ccc(F)c2cc(C(=O)Nc3cccc(NC4CCN(C)C4)c3)[nH]c12 (stereo not shown) [compound 330]
13 | 60 |  | 2000 | Cc1ccc(F)c2cc(C(=O)NCC3(c4ccccc4N4CCN(C)CC4)CC3)[nH]c12 [Cpd. No. 392, 4-fluoro-7-methyl-N-((1-(2-(4-methylpiperazin-1-yl)phenyl)cyclopropyl)methyl)-1H-indole-2-carboxamide]
14 | 60 |  | 300 | Cc1ccc(F)c2cc(C(=O)N[C@@H]3CCC[C@H](N4CCn5cncc5C4)C3)[nH]c12 [compound 991]
15 | 400 |  | 5600 | Cc1cc(C(=O)N[C@H]2CC[C@H]2N)cnc1C(NC(=O)c1cc2cccc(C)c2[nH]1)C1CC1 (stereo partly shown) [compound 451]
16 | 200 |  | 400 | CC(=O)N1CCN(C[C@H]2CCC[C@@H](NC(=O)c3cc4c(F)ccc(C)c4[nH]3)C2)CC1 [compound 1032]
17 | 30 | 300 |  | CC(=O)N1C2CCC1CN(c1cccc(NC(=O)c3cc4c(F)ccc(C)c4[nH]3)c1)C2 [compound 163]
18 | 6900 |  | 19900 | CCc1cccnc1C(NC(=O)c1cc2cccc(C)c2[nH]1)C1CC1 (stereo not shown) [compound 521]
19 | 20 | 100 |  | Cc1ccc(F)c2cc(C(=O)NC3CCCC(N4CCC(N(C)C(=O)C5COC5)C4)C3)[nH]c12 (stereo not shown) [compound 946]
20 | 71100 | > 25000 |  | Cc1cccc2cc(C(=O)NC(c3cccc(CN(C)C)n3)C3CC3)[nH]c12 (stereo not shown) [compound 615]
21 | 100 |  | 500 | CC(=O)N1CC2CC1CN2[C@H]1CCC[C@@H](NC(=O)c2cc3c(F)ccc(C)c3[nH]2)C1 (stereo partly shown) [compound 936]
22 | 10 |  | 70 | Cc1ccc(F)c2cc(C(=O)Nc3cc(F)cc(N4CCC5(CCNCC5(F)F)C4)c3)[nH]c12 (stereo not shown) [compound 28]
23 | 4200 |  | 8900 | Cc1cccnc1C(NC(=O)c1cc2cccc(C)c2[nH]1)C(C)C (stereo not shown) [compound 474]

The next lines start with the molecule.

Row | SMILES | IC50 (SETD2(1434-1711)) [nM] | IC50 (H3K36me3 in A549 cells) [nM] | IC50 (H3K36me3 in A549 cells; Homo sapiens) [nM]
24 | Cc1ccc(F)c2cc(C(=O)Nc3cccc(N4CC[C@@H](N(C)C)C4)c3)[nH]c12 [compound 94] | 20 | 200 | 
25 | CC(=O)N1CCN(c2cc(NC(=O)c3cc4c(F)ccc(C)c4[nH]3)cc(C(F)(F)F)c2)CC1 [compound 242] | 100 | 600 | 
26 | Cc1ccc(F)c2cc(C(=O)Nc3cc(N4CCN(C)CC4)c4nccn4c3)[nH]c12 [compound 338] | 100 |  | 1700
27 | Cc1ccc(F)c2cc(C(=O)Nc3cccc(-c4nnc(N)[nH]4)c3)[nH]c12 [compound 524] | 1500 | 20900 | 
28 | Cc1ccc(F)c2cc(C(=O)Nc3cccc(N4C5COCC4C5)c3)[nH]c12 [compound 422] | 1500 | 3700 | 
29 | Cc1cccc2cc(C(=O)N[C@H]3C[C@@H](NC(=O)CCN)C3)[nH]c12 [compound 596] | > 50000 |  | > 25000
30 | Cc1ccc(F)c2cc(C(=O)N[C@@H]3CCC[C@H](N4CCn5c(nn(C)c5=O)C4)C3)[nH]c12 [compound 1056] | 90 |  | 300
31 | Cc1ccc(F)c2cc(C(=O)NC3CCCC(N4CCC(N(C)C(=O)C5COC5)C4)C3)[nH]c12 (stereo not shown) [compound 947] | 5500 | > 2000 | 
32 | Cc1cc(CN2CCN(C)CC2)cnc1C(NC(=O)c1cc2cccc(C)c2[nH]1)C1CC1 (stereo not shown) [compound 477] | 2100 |  | 9300
33 | Cc1cccc2cc(C(=O)Nc3ccc4ncc(CN(C)C)n4c3C)[nH]c12 [compound 495] | 1800 | 13300 | 
34 | Cc1cccc2cc(C(=O)NC3CCN(C(=O)CCCN)C3)[nH]c12 (stereo not shown) [compound 593] | > 50000 |  | > 25000
35 | CC(=NC#N)N1CCN(C2CCCC(NC(=O)c3cc4c(F)ccc(C)c4[nH]3)C2)CC1 (stereo not shown) [compound 1148] | 900 | > 2000 | 
36 | Cc1ccc(F)c2cc(C(=O)Nc3cccc(N4CCN(C(=O)CC#N)CC4)c3)[nH]c12 [compound 170] | 50 |  | 300
37 | COCC(=O)N(C)[C@@H]1CCN([C@H]2CCC[C@@H](NC(=O)c3cc4c(F)ccc(C)c4[nH]3)C2)C1 [compound 1042] | 20 |  | 200
38 | Cc1ccc(F)c2cc(C(=O)Nc3cnn(C4CCC(N(C)C)CC4)c3)[nH]c12 (stereo not shown) [compound 565] | 11600 |  | > 25000
39 | Cc1cccnc1C(Cc1cnn(CC2CC2)c1)NC(=O)c1cc2c(F)ccc(C)c2[nH]1 (stereo not shown) [compound 141] | 40 |  | 300
40 | Cc1ccc(F)c2cc(C(=O)Nc3cccc(N4CCC(N(C)C)(C(F)(F)F)CC4)c3)[nH]c12 [compound 375] | > 10000 | > 2000 | 
41 | CC(=O)N1C(C)CN(C2CCCC(NC(=O)c3cc4c(F)ccc(C)c4[nH]3)C2)CC1C (stereo not shown) [compound 1162] | 70 | 200 | 

Row | SMILES | IC50 (SETD2(1434-1711)) [nM] | IC50 (H3K36me3 in A549 cells) [nM] | IC50 (H3K36me3 in A549 cells; Homo sapiens) [nM]
42 | Cc1cn(Cc2cnc(C(NC(=O)c3cc4c(F)ccc(C)c4[nH]3)C3CC3)c(C)c2)c(C)n1 (stereo not shown) [compound 317] | 100 |  | 1400
43 | Cc1cccc2cc(C(=O)Nc3ccc4nc[nH]c(=O)c4c3)[nH]c12 [compound 538] | 1000 |  | > 25000
44 | Cc1ccc(F)c2cc(C(=O)Nc3cccc(-c4ncccn4)c3)[nH]c12 [compound 316] | 100 |  | 1400
45 | Cc1ccc(F)c2cc(C(=O)NC3CCCC(N4CCN5C(=O)COCC5C4)C3)[nH]c12 (stereo not shown) [compound 1067] | 900 | 1200 | 
46 | Cc1ccc(F)c2cc(C(=O)NC3CCCC(N4CCN5C(=O)NCC5C4)C3)[nH]c12 (stereo not shown) [compound 1083] | 20 | 50 | 
47 | Cc1ccc(F)c2cc(C(=O)Nc3cccc(N4CCC(N(C)C)C(C)C4)c3)[nH]c12 (stereo not shown) [compound 99] | 30 | 200 | 
48 | Cc1ccc(F)c2cc(C(=O)Nc3cccc(-c4ccn(C)n4)c3)[nH]c12 [compound 394] | 200 |  | 2100
49 | Cc1ccc(F)c2cc(C(=O)NC3CCCC(N4CCn5c(nccc5=O)C4)C3)[nH]c12 (stereo not shown) [compound 1165] | 3500 | > 2000 | 
50 | Cc1ccc(F)c2cc(C(=O)Nc3cccc(-c4cnn5ccccc45)c3)[nH]c12 [compound 290] | 400 |  | 1100
51 | Cc1ccc(F)c2cc(C(=O)Nc3cc(F)cc(N4CCC(N(C)C)C4=O)c3)[nH]c12 (stereo not shown) [compound 3] | 4 | 30 | 
52 | CC(=O)N1CC2CCC1CN2C1CCCC(NC(=O)c2cc3c(F)ccc(C)c3[nH]2)C1 (stereo not shown) [compound 962] | 800 | > 2000 | 
53 | Cc1ccc(F)c2cc(C(=O)Nc3cccc4c(N5CCC(N(C)C)CC5)[nH]nc34)[nH]c12 [compound 415] | 100 |  | 3200
54 | Cc1ccc(F)c2cc(C(=O)Nc3cccc(-c4cn[nH]c4N)c3)[nH]c12 [compound 397] | 500 |  | 2400
55 | Cc1ccc(F)c2cc(C(=O)Nc3cccc(N4CCn5cnnc5C4)c3)[nH]c12 [compound 328] | 40 |  | 1600
56 | Cc1cc(C(=O)NC2CCNC2)cnc1C(NC(=O)c1cc2cccc(C)c2[nH]1)C1CC1 (stereo not shown) [compound 510] | 600 | 15500 | 
57 | CC(=O)N1CCN(C2COCC(NC(=O)c3cc4c(F)ccc(C)c4[nH]3)C2)CC1 (stereo not shown) [compound 986] | 60 | 200 | 
58 | Cc1ccc(F)c2cc(C(=O)N[C@@H]3CCC[C@H](N4CCN(C)CC4=O)C3)[nH]c12 [compound 916] | 1000 |  | 1300
59 | Cc1cc(-c2cccnc2)cnc1C(NC(=O)c1cc2cccc(C)c2[nH]1)C1CC1 (stereo not shown) [compound 406] | 300 | 2800 | 

From US12116358B2, “Substituted indoles and methods of use thereof” (EPIZYME, INC., priority 2018, dated 2024)
